Source: patent publication US20100028366A1, “SYNERGISTIC EFFECT BETWEEN A […] AND ANOTHER OXIDATIVE INDUCING SYSTEM FOR TREATING TUMORS” (priority 2005, published 2010)

System: W&Wlis cells
Assay: Determination of the extracellular peroxide concentration
Type: cell-based, canine
Conditions: 48 hours; 0.5 mg/ml of linamarin and/or 5 mEU/ml of glucose oxidase; control approximately 20 μM
Procedure: The H2O2 levels (FIG. 3B) produced extracellularly in the combined therapy were further studied in the invention. To do so, the amount of H2O2 present in the culture medium of W&Wlis cells at 48 hours in a treatment with 0.5 mg/ml of linamarin, in the presence of 5 mEU/ml of glucose oxidase or in the combination of both treatments, was analyzed although positive results were also obtained using other concentrations.
The samples to be analyzed were diluted in 1 ml of 0.1 M phosphate buffer pH 7.4. Then 3.7 EU/ml of peroxidase (Sigma-Aldrich, St. Louis, USA) and 0.1 mg/ml of ortho-dianisidine (Sigma-Aldrich, St. Louis, USA) were added. The samples were incubated at room temperature for 30 minutes and absorbances at 436 nm were determined. The H2O2 concentration was obtained by interpolation of the data obtained in a standard line performed with increasing concentrations of H2O2.

CC(C)(C#N)O[C@@H]1O[C@H](CO)[C@@H](O)[C@H](O)[C@H]1O [lin, 2-hydroxy-isobutyronitrile-β-D-glucopyranoside]
extracellular H2O2 concentration in the culture medium: did not cause significant variations
